Reference: a melting point compilation (Tetko et al.; mined from patent text by program, amines drawn as free bases though some values may be those of a salt)

melting point [°C] | SMILES
> 40 | CCOC(=O)c1c(N2CCC(N(C)C)C2)c2cc(C)ccc2n(Cc2ccccc2)c1=O (centres undefined)
220 to 224 | N#Cc1cccc(CCc2n[nH]c3c2c(=O)n(-c2ccccc2)c2ncccc32)c1
161 to 163 | O=C(c1ccc(Cl)cc1)c1cc(Cl)cc2c1OCC2C(=O)O (centres undefined)
142 | O=C(OCC1c2ccccc2-c2ccccc21)N1CCC(n2nc(-c3ccccc3)[nH]c2=O)CC1
315 to 320 | O=C1NC(N2CCCCC2)=N/C1=C\c1c[nH]c2ncc(Cl)cc12
195 to 196 | O=C(O)[C@@]1(c2ccc3ccccc3c2)CC1(c1ccccc1)c1ccccc1
201 to 202 | O=CNCC1c2cccc3c2N(CC3)c2ccccc2N1C=O (centres undefined)
285 | CCOC(=O)N1CCCc2nc3ccccc3c(O)c2C1
75 to 76 | CCCc1c(OCc2ccc(CC#N)cc2)ccc(C(C)=O)c1O
210 to 212 | Cc1occc1C(=O)Nc1ccc(C(=O)N2Cc3cccn3Cc3ccccc32)cn1
162 to 164 | CON1C=C2N=NC3=C(N2C1)N(c1ccccn1)CC(C1CC1)=C3
102 | Cc1cc2n(c1C(=O)c1cccs1)CCC2C(=O)OC(C)C (centres undefined)
217 to 219 | Cn1cc(C2=C(c3cn4c5c(cccc35)CCC4)C(=O)OC2=O)c2ccccc21
66 to 67 | CC(C)(C)C(=O)OC1C(c2ccccc2)=C(c2ccc(S(C)(=O)=O)cc2)C1(C)C (centres undefined)
85 to 86 | Cc1cc2c(c(C)c1N)CCO2
107 to 109 | CCOC(=O)C1=C(C)NC(CSCC2CO2)=C(C(=O)OCC)C1c1cccc([N+](=O)[O-])c1 (centres undefined)
204 to 209 | O=C(c1ccccc1)C(O)c1ccc(Cl)c(Cl)c1 (centres undefined)
205 to 207 | CN1CCN(c2cccc3ccc(Nc4ncccc4NC(=O)c4ccccc4)cc23)CC1

melting point [°C] | SMILES
114 to 115 | CSc1cccc(NCC2CN(C(=O)Oc3ccccc3)CCO2)c1 (centres undefined)
80 | CC(C)(C)[S@](=O)N1CCC[C@@H]1c1ccc(Cl)cc1
60 to 63 | CCCCCNS(N)(=O)=O
95 to 97 | O=C(NCCCCCCCCn1ccnc1)c1ccc(Cl)s1
153 to 154 | CCCCC(=NO)C(C)(C)NOC(CNC(C)(C)C(CC)=NO)Cn1ccnc1[N+](=O)[O-] (centres undefined)
102 to 105 | CN(C)CCCOc1ccc(-c2ccc3nnn(Cc4ccc5ncccc5c4)c3n2)cc1F
107 to 108 | C=CCOc1ccc2c(C)cc(=O)oc2c1C
270 to 274 | Cn1cc(CO)c2c3c(c(-c4ccccc4Cl)cc21)C(=O)NC3=O
172 to 175 | CN(C(=O)c1cnn(C)c1C(=O)Nc1ccn2nc(N3CCOCC3)nc2c1)C1CC1
120 to 121 | O=C(NCCC(Nc1ccccc1)c1ccccc1)c1ccccc1 (centres undefined)
116 to 117 | CCNC(=O)C1OC(n2cnc3c(NNC(=O)c4ccccc4)ncnc32)C2OC(C)(C)OC12 (centres undefined)
215 | OCc1ccc(-c2ccc(OC3SCC(O)C(O)C3O)cn2)cc1 (centres undefined)
95 to 98 | Cc1cccc(C)c1N1C(=N)N(c2cccc(C(F)(F)F)c2)CC1C (centres undefined)
107 to 108 | COC(=O)c1nn(C)nc1C=O
115 to 116 | Brc1ccc(-c2nc(COc3ccc(CCCn4ccnc4)cc3)co2)o1
135 to 138 | FC(F)(F)/C(=C(/c1ccccc1)c1ccc(OCCBr)cc1)c1ccccc1
202 to 204 | COc1ccc(N2CCN(C)CC2)c2c1OCC(C(=O)Nc1ccc(N3CCOCC3)cc1)C2 (centres undefined)
182 to 183 | O=C(NN1CCCCC1)c1nc(-c2ccc(Cl)cc2Cl)n(-c2ccc(Cl)cc2)c1Br

SMILES | melting point [°C]
CCC(C)(O)C1(c2cccc(OC)c2)CCN(C)CC1 (centres undefined) | 134 to 135
Cc1cnn(-c2cc(F)c(C#N)cc2F)c(=O)c1 | 223
CN1C[C@H](CCN2CCN(C(c3ccccc3)c3ccccc3)CC2)C[C@@H]2c3cccc4[nH]cc(c34)C[C@H]21 | 206 to 212
